Assay results reported in US20240417412A1, “HETEROCYCLIC COMPOUNDS AND METHODS OF USE” (AMGEN INC., priority 2022, published 2024).
Like-named read-outs stand apart in the source and are kept apart here.

Assays:
p-ERK (AsPC-1 cells) = test: Phospho-ERK1/2 MSD Assay; assay type: cell-based
Experimental: Sixteen hours prior to compound treatment, AsPC-1 cells were seeded in 96-well cell culture plates at a density of 25,000 cells/well and incubated at 37° C., 5% CO2. A compound dose-response titration was diluted in growth media, added to appropriate wells of a cell culture plate, and then incubated at 37° C., 5% CO2 for 2 hours. […] Phosphorylation of ERK1/2 in compound-treated lysates was assayed using Phospho-ERK1/2 Whole Cell Lysate kits (Meso Scale Discovery K151DWD) according to the manufacturer's protocol. Assay plates were read on a Meso Scale Discovery Sector Imager 6000, and data were analyzed using a 4-parameter logistic model to calculate IC50 values.

KRAS G12D [1] = target: KRAS G12D (Homo sapiens, UniProt P01116, G12D); test: KRAS G12D TR-FRET Assay; settings: His-tagged KRAS G12D, biotinylated KRPep-2d, read-out: KRAS G12D Binding IC50
Experimental: The plate was incubated for 30 minutes at room temperature. Biotinylated KRPep-2d substrate (Amgen) was diluted to 20 nM in Assay Buffer and 2 uL was added to all wells and incubated for 1 hour at room temperature. Detection Reagent (0.4 nM LANCE Eu-W1024 Anti-6×His (Perkin Elmer AD0401), 5 nM streptavidin-d2 (Cisbio 610SADLA)) was prepared in Assay Buffer, then 4 μL was added to the plate and incubated for 1 hour at room temperature.

KRAS G12D [2] = target: KRAS G12D (Homo sapiens, UniProt P01116, C118A/G12D); test: KRAS G12D Coupled Nucleotide Exchange Assay; assay type: biochemical; settings: GDP-bound KRAS G12D/C118A, 2 hours pre-incubation, SOS-mediated nucleotide exchange, AlphaScreen
Experimental: The assay plates were then read on a PerkinElmer EnVision Multilabel Reader, using AlphaScreen® technology, and data were analyzed using a 4-parameter logistic model to calculate IC50 values.

[3] = read-out: 2 h p-ERK (AsPC-1 cells), IC50, AsPC-1 cells, 2 hours compound treatment

Chain of KRAS G12D (Homo sapiens, UniProt P01116, G12D) (P01116 1-188 isoform P01116-2 G12D): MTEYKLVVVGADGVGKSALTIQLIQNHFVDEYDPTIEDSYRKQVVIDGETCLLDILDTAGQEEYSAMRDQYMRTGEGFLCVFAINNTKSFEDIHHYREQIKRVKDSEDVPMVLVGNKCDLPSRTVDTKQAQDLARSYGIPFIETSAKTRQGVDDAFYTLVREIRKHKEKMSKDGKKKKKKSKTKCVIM
Chain of KRAS G12D (Homo sapiens, UniProt P01116, C118A/G12D) (P01116 1-169 isoform P01116-2 G12D/C118A): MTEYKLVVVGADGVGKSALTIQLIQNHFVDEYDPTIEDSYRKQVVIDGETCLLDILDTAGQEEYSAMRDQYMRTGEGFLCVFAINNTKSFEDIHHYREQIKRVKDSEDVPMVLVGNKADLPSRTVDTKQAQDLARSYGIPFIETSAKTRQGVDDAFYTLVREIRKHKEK

| IC50 (p-ERK (AsPC-1 cells); Homo sapiens, ASPC1, 2 h, read-out: 2 h p-ERK (AsPC-1 cells), IC50 (μM), AsPC-1 cells, 2 hours compound treatment) [µM] | IC50 (KRAS G12D [1]) [µM] | IC50 (KRAS G12D [2]) [µM] | IC50 (p-ERK (AsPC-1 cells); [3]) [µM] | SMILES |
| --- | --- | --- | --- | --- |
| 0.034 | 0.001 | 0.002 | – | CCc1c(F)ccc2cc(O)cc(-c3ncc4c(N5CC(O)CC6(CC6)C5)nc(OC[C@@]56CCCN5C[C@H](F)C6)nc4c3F)c12 (single isomer, unassigned) [Example 3] |
| – | 0.002 | 0.003 | – | CCc1c(F)ccc2cc(O)cc(-c3ncc4c(N5CC(O)CC6(CC6)C5)nc(OC[C@@]56CCCN5C[C@H](F)C6)nc4c3F)c12 (single isomer, unassigned) [Example 4] |
| – | 0.003 | 0.008 | – | CCc1c(F)ccc2cc(O)cc(-c3ncc4c(N5CCCC6(CNC(=O)C6)C5)nc(OC[C@@]56CCCN5C[C@H](F)C6)nc4c3F)c12 (single isomer, unassigned) [Example 7] |
| – | – | – | 0.003 | CCc1c(F)ccc2cc(O)cc(-c3ncc4c(N5CCCC6(CCO6)C5)nc(OC[C@@]56CCCN5C[C@H](F)C6)nc4c3F)c12 (single isomer, unassigned) [Example 21] |
| – | – | – | 0.252 | CCc1c(F)ccc2cc(O)cc(-c3ncc4c(N5CCCC6(CCO6)C5)nc(OC[C@@]56CCCN5C[C@H](F)C6)nc4c3F)c12 (single isomer, unassigned) [Example 22] |
| – | 0.059 | 0.065 | – | CCc1c(F)ccc2cc(O)cc(-c3ncc4c(N5CCCC6(CNC6=O)C5)nc(OC[C@@]56CCCN5C[C@H](F)C6)nc4c3F)c12 (single isomer, unassigned) [Example 46] |
| – | 0.036 | 0.054 | – | CCc1c(F)ccc2cc(O)cc(-c3ncc4c(N5CCCC6(CCC6O)C5)nc(OC[C@@]56CCCN5C[C@H](F)C6)nc4c3F)c12 (single isomer, unassigned) [Example 48] |
| – | – | – | 0.008 | CCc1c(F)ccc2cc(O)cc(-c3ncc4c(N5CCCC6(CC(O)C6)C5)nc(OC[C@@]56CCCN5C[C@H](F)C6)nc4c3F)c12 (single isomer, unassigned) [Example 54] |
| – | – | – | 0.078 | CCc1c(F)ccc2cc(O)cc(-c3ncc4c(N5CCCC6(CC(O)C6)C5)nc(OC[C@@]56CCCN5C[C@H](F)C6)nc4c3F)c12 (single isomer, unassigned) [Example 55] |
| – | 0.068 | 0.042 | – | CCc1c(F)ccc2cc(O)cc(-c3ncc4c(N5CCCC6(CCO6)C5)nc(OC[C@@]56CCCN5C[C@H](F)C6)nc4c3C)c12 (single isomer, unassigned) [Example 62] |
| – | 0.305 | 0.129 | – | CCc1c(F)ccc2cccc(-c3ncc4c(N5CCCC6(CNC(=O)O6)C5)nc(OC[C@@]56CCCN5C[C@H](F)C6)nc4c3F)c12 (single isomer, unassigned) [Example 64] |
| – | 0.074 | 0.042 | – | CCc1c(F)ccc2cc(O)cc(-c3ncc4c(N5CCCC6(CCC(=O)O6)C5)nc(OC[C@@]56CCCN5C[C@H](F)C6)nc4c3F)c12 (single isomer, unassigned) [Example 65] |
| – | 0.056 | 0.05 | – | CCc1c(F)ccc2cc(O)cc(-c3ncc4c(N5CCOCC6(COC6)C5)nc(OCC56CCCN5C[C@H](F)C6)nc4c3F)c12 (stereo in doubt) [Example 50, 5-Ethyl-6-fluoro-4-(8-fluoro-2-(((2R,7aS)-2-fluorotetrahydro-1H-pyrrolizin-7a(5H)-yl)methoxy)-4-(2,6-dioxa-9-azaspiro[3.6]decan-9-yl)pyrido[4,3-d]pyrimidin-7-yl)naphthalen-2-ol] |
| – | 0.017 | 0.013 | – | CCc1c(F)ccc2cc(O)cc(-c3ncc4c(N5CCC6(CCCS6(=O)=O)C5)nc(OCC56CCCN5C[C@H](F)C6)nc4c3F)c12 (stereo in doubt) [Example 51, 7-(7-(8-Ethyl-7-fluoro-3-hydroxynaphthalen-1-yl)-8-fluoro-2-(((2R,7aS)-2-fluorotetrahydro-1H-pyrrolizin-7a(5H)-yl)methoxy)pyrido[4,3-d]pyrimidin-4-yl)-1-thia-7-azaspiro[4.4]nonane 1,1-dioxide] |
| – | 0.04 | 0.017 | – | CCc1c(F)ccc2cc(O)cc(-c3ncc4c(N5CCCC6(CCN6)C5)nc(OC[C@@]56CCCN5C[C@H](F)C6)nc4c3F)c12 (stereo partly drawn) [Example 5, 5-Ethyl-6-fluoro-4-(8-fluoro-2-(((2R,7aS)-2-fluorotetrahydro-1H-pyrrolizin-7a(5H)-yl)methoxy)-4-(1,6-diazaspiro[3.5]nonan-6-yl)pyrido[4,3-d]pyrimidin-7-yl)naphthalen-2-ol] |
| – | 0.002 | 0.003 | – | CCc1c(F)ccc2cc(O)cc(-c3ncc4c(N5CCCC6(COC6)C5)nc(OC[C@@]56CCCN5C[C@H](F)C6)nc4c3F)c12 [Example 20, 5-Ethyl-6-fluoro-4-(8-fluoro-2-(((2R,7aS)-2-fluorotetrahydro-1H-pyrrolizin-7a(5H)-yl)methoxy)-4-(2-oxa-6-azaspiro[3.5]nonan-6-yl)pyrido[4,3-d]pyrimidin-7-yl)naphthalen-2-ol] |
| – | 0.027 | 0.028 | – | CCc1c(F)ccc2cc(O)cc(-c3ncc4c(N5CCOC6(CCC6)C5)nc(OC[C@@]56CCCN5C[C@H](F)C6)nc4c3F)c12 [Example 31, 5-Ethyl-6-fluoro-4-(8-fluoro-2-(((2R,7aS)-2-fluorotetrahydro-1H-pyrrolizin-7a(5H)-yl)methoxy)-4-(5-oxa-8-azaspiro[3.5]nonan-8-yl)pyrido[4,3-d]pyrimidin-7-yl)naphthalen-2-ol] |
| – | 0.004 | 0.005 | – | CCc1c(F)ccc2cccc(-c3ncc4c(N5CCCC6(CNC6=O)C5)nc(OC[C@@]56CCCN5C[C@H](F)C6)nc4c3F)c12 (stereo partly drawn) [Example 32, 6-(7-(8-Ethyl-7-fluoronaphthalen-1-yl)-8-fluoro-2-(((2R,7aS)-2-fluorotetrahydro-1H-pyrrolizin-7a(5H)-yl)methoxy)pyrido[4,3-d]pyrimidin-4-yl)-2,6-diazaspiro[3.5]nonan-1-one] |
| – | 0.031 | 0.033 | – | CCc1c(F)ccc2cc(O)cc(-c3ncc4c(N5CCCC6(CNC6)C5)nc(OC[C@@]56CCCN5C[C@H](F)C6)nc4c3F)c12 [Example 38, 5-Ethyl-6-fluoro-4-(8-fluoro-2-(((2R,7aS)-2-fluorotetrahydro-1H-pyrrolizin-7a(5H)-yl)methoxy)-4-(2,6-diazaspiro[3.5]nonan-6-yl)pyrido[4,3-d]pyrimidin-7-yl)naphthalen-2-ol] |
| – | 0.012 | 0.008 | – | CCc1c(F)ccc2cc(O)cc(-c3ncc4c(N5CCCC6(CCS6(=O)=O)C5)nc(OC[C@@]56CCCN5C[C@H](F)C6)nc4c3F)c12 (some centres unmarked) [Example 43] |
| – | 0.051 | 0.024 | – | CCc1c(F)ccc2cc(O)cc(-c3ncc4c(N5CCCC6(CCNC6=O)C5)nc(OC[C@@]56CCCN5C[C@H](F)C6)nc4c3F)c12 (stereo partly drawn) [Example 47, 7-(7-(8-Ethyl-7-fluoro-3-hydroxynaphthalen-1-yl)-8-fluoro-2-(((2R,7aS)-2-fluorotetrahydro-1H-pyrrolizin-7a(5H)-yl)methoxy)pyrido[4,3-d]pyrimidin-4-yl)-2,7-diazaspir[4.5]decan-1-one] |
| – | 0.006 | 0.006 | – | CCc1c(F)ccc2cc(O)cc(-c3ncc4c(N5CCCC6(C5)CN(S(C)(=O)=O)C6)nc(OC[C@@]56CCCN5C[C@H](F)C6)nc4c3F)c12 [Example 52, 5-Ethyl-6-fluoro-4-(8-fluoro-2-(((2R,7aS)-2-fluorotetrahydro-1H-pyrrolizin-7a(5H)-yl)methoxy)-4-(2-(methylsulfonyl)-2,6-diazaspiro[3.5]nonan-6-yl)pyrido[4,3-d]pyrimidin-7-yl)naphthalen-2-ol] |
